# Organism: Rattus norvegicus
# Assay: Open TG-GATES - Regimen: Single
# Format: toxicity, organism-based, Sprague-Dawley
# Set-up: regimen Single, gender Male, age 6 weeks
# Details: in vivo, po, 200 mg/kg, route gavage, dose level Low; for APTT / Bas / Eos / Fbg / Hb / Ht / Lym / MCH / MCHC / MCV / Mono / Neu / PT / Plat / RBC / Ret / WBC: tissue Blood; for KIDNEY_L / KIDNEY_R / KIDNEY_TOTAL: tissue Kidney; for LIVER: tissue Liver; for A/G / ALP / ALT / AST / BUN / CRE / Ca / Cl / DBIL / GLC / IP / K / LDH / Na / PL / RALB / TBIL / TC / TG / TP / gamma-GTP: tissue Plasma
smiles,measurement,setting,value
NNC(=O)c1ccncc1 [ISONIAZID],TERMINAL_BW,3 h,222.6 g
same,APTT,3 h,18.4 s
same,Bas,3 h,0%
same,Eos,3 h,0.8%
same,Fbg,3 h,239.8 mg/dL
same,Hb,3 h,13.6 g/dL
same,Ht,3 h,38%
same,Lym,3 h,74.4%
same,MCH,3 h,22.1 pg
same,MCHC,3 h,35.8%
same,MCV,3 h,61.6 fL
same,Mono,3 h,2%
same,Neu,3 h,22.4%
same,PT,3 h,12.2 s
same,Plat,3 h,126 x10_4/uL
same,RBC,3 h,617.4 x10_4/ul
same,Ret,3 h,7.7%
same,WBC,3 h,80.9 x10_2/uL
same,KIDNEY_L,3 h,1 g
same,KIDNEY_R,3 h,1 g
same,KIDNEY_TOTAL,3 h,2 g
same,LIVER,3 h,9.3 g
same,A/G,3 h,1.6
same,ALP,3 h,918.8 IU/L
same,ALT,3 h,35.2 IU/L
same,AST,3 h,70 IU/L
same,BUN,3 h,8.8 mg/dL
same,CRE,3 h,0.4 mg/dL
same,Ca,3 h,10.3 mg/dL
same,Cl,3 h,105.2 meq/L
same,DBIL,3 h,0.066 mg/dL
same,GLC,3 h,211 mg/dL
same,IP,3 h,10.1 mg/dL
same,K,3 h,3.6 meq/L
same,LDH,3 h,175.2 IU/L
same,Na,3 h,142.8 meq/L
same,PL,3 h,137 mg/dL
same,RALB,3 h,3.5 g/dL
same,TBIL,3 h,0.1 mg/dL
same,TC,3 h,76.4 mg/dL
same,TG,3 h,57.8 mg/dL
same,TP,3 h,5.7 g/dL
same,gamma-GTP,3 h,1 IU/L
same,TERMINAL_BW,6 h,219 g
same,APTT,6 h,18.5 s
same,Bas,6 h,0%
same,Eos,6 h,1%
same,Fbg,6 h,225 mg/dL
same,Hb,6 h,13.7 g/dL
same,Ht,6 h,38.3%
same,Lym,6 h,76.4%
same,MCH,6 h,21.7 pg
same,MCHC,6 h,35.8%
same,MCV,6 h,60.5 fL
same,Mono,6 h,2.6%
same,Neu,6 h,19%
same,PT,6 h,12 s
same,Plat,6 h,126.8 x10_4/uL
same,RBC,6 h,633.8 x10_4/ul
same,Ret,6 h,7.6%
same,WBC,6 h,87.2 x10_2/uL
same,KIDNEY_L,6 h,0.9 g
same,KIDNEY_R,6 h,0.9 g
same,KIDNEY_TOTAL,6 h,1.9 g
same,LIVER,6 h,9.6 g
same,A/G,6 h,1.5
same,ALP,6 h,735.6 IU/L
same,ALT,6 h,28.4 IU/L
same,AST,6 h,58 IU/L
same,BUN,6 h,8.2 mg/dL
same,CRE,6 h,0.4 mg/dL
same,Ca,6 h,10.2 mg/dL
same,Cl,6 h,104.8 meq/L
same,DBIL,6 h,0.064 mg/dL
same,GLC,6 h,211 mg/dL
same,IP,6 h,9.5 mg/dL
same,K,6 h,3.9 meq/L
same,LDH,6 h,197.4 IU/L
same,Na,6 h,142.4 meq/L
same,PL,6 h,140.8 mg/dL
same,RALB,6 h,3.3 g/dL
same,TBIL,6 h,0.1 mg/dL
same,TC,6 h,76 mg/dL
same,TG,6 h,71.2 mg/dL
same,TP,6 h,5.5 g/dL
same,gamma-GTP,6 h,1 IU/L
same,TERMINAL_BW,9 h,218.2 g
same,APTT,9 h,18.8 s
same,Bas,9 h,0.2%
same,Eos,9 h,0.6%
same,Fbg,9 h,228.2 mg/dL
same,Hb,9 h,13.7 g/dL
same,Ht,9 h,37.9%
same,Lym,9 h,75%
same,MCH,9 h,21.8 pg
same,MCHC,9 h,36%
same,MCV,9 h,60.6 fL
same,Mono,9 h,3%
same,Neu,9 h,20.8%
same,PT,9 h,12.3 s
same,Plat,9 h,119 x10_4/uL
same,RBC,9 h,626.2 x10_4/ul
same,Ret,9 h,7.8%
same,WBC,9 h,82.5 x10_2/uL
same,KIDNEY_L,9 h,0.9 g
same,KIDNEY_R,9 h,0.9 g
same,KIDNEY_TOTAL,9 h,1.8 g
same,LIVER,9 h,8.8 g
same,A/G,9 h,1.7
same,ALP,9 h,793.2 IU/L
same,ALT,9 h,23.4 IU/L
same,AST,9 h,44.6 IU/L
same,BUN,9 h,9.4 mg/dL
same,CRE,9 h,0.4 mg/dL
same,Ca,9 h,10.5 mg/dL
same,Cl,9 h,105 meq/L
same,DBIL,9 h,0.064 mg/dL
same,GLC,9 h,195.2 mg/dL
same,IP,9 h,9.3 mg/dL
same,K,9 h,3.9 meq/L
same,LDH,9 h,211.4 IU/L
same,Na,9 h,142.8 meq/L
same,PL,9 h,150.2 mg/dL
same,RALB,9 h,3.5 g/dL
same,TBIL,9 h,0.1 mg/dL
same,TC,9 h,80.2 mg/dL
same,TG,9 h,77.2 mg/dL
same,TP,9 h,5.5 g/dL
same,gamma-GTP,9 h,1 IU/L
same,TERMINAL_BW,24 h,229.4 g
same,APTT,24 h,18.3 s
same,Bas,24 h,0.8%
same,Eos,24 h,1%
same,Fbg,24 h,229.2 mg/dL
same,Hb,24 h,13.5 g/dL
same,Ht,24 h,37.6%
same,Lym,24 h,78.8%
same,MCH,24 h,21.7 pg
same,MCHC,24 h,36.1%
same,MCV,24 h,60 fL
same,Mono,24 h,2.4%
same,Neu,24 h,16%
same,PT,24 h,11.7 s
same,Plat,24 h,134.2 x10_4/uL
same,RBC,24 h,626.6 x10_4/ul
same,Ret,24 h,6.5%
same,WBC,24 h,89.2 x10_2/uL
same,KIDNEY_L,24 h,1 g
same,KIDNEY_R,24 h,1 g
same,KIDNEY_TOTAL,24 h,2 g
same,LIVER,24 h,10.3 g
same,A/G,24 h,1.6
same,ALP,24 h,1043.4 IU/L
same,ALT,24 h,30 IU/L
same,AST,24 h,58.2 IU/L
same,BUN,24 h,15.6 mg/dL
same,CRE,24 h,0.4 mg/dL
same,Ca,24 h,10.8 mg/dL
same,Cl,24 h,103 meq/L
same,DBIL,24 h,0.06 mg/dL
same,GLC,24 h,200.4 mg/dL
same,IP,24 h,8.5 mg/dL
same,K,24 h,4.3 meq/L
same,LDH,24 h,221.4 IU/L
same,Na,24 h,141.8 meq/L
same,PL,24 h,139 mg/dL
same,RALB,24 h,3.6 g/dL
same,TBIL,24 h,0.1 mg/dL
same,TC,24 h,71.4 mg/dL
same,TG,24 h,101.6 mg/dL
same,TP,24 h,5.7 g/dL
same,gamma-GTP,24 h,1.4 IU/L

# — ChEMBL document CHEMBL3885861, “Open TG-GATES”
